# Measured values reported in US7417062B2, “Substituted arylamides” (ChemoCentryx, Inc., priority 2004, dated 2008).
# Target: T1, CCXCKR2 receptor (Homo sapiens, UniProt P25106)
# T1 construct: host or cells: MCF-7 (endogenous) and/or MDA-MB-435S transfected with hRDC1 in pcDNA3.1(+)
# Test: Displacement of 125I-labeled SDF-1 from the CCXCKR2 receptor (radioligand binding, determination of IC50 values)
# Details: not given
# Procedure: The ability of the compounds to displace the labeled chemokine from the CCXCKR2 receptor sites at multiple concentrations was then determined with the screening process.
# Compounds that were deemed effective modulators were able to displace at least 50% of the SDF-1 from the CCXCKR2 receptor at concentrations at or below 10 micromolar (μM) and more preferably at concentrations at or below 2 micromolar. At present, especially preferred compounds can displace at least 50% of the SDF-1 from the CCXCKR2 receptor at concentrations at or below 500 nM. Exemplary compounds that met these criteria are reproduced in Table B below. All compounds were prepared as described in the Examples above, or by related methods substituting readily available starting materials.
# Reagents and Cells. ^125I-labeled SDF-1 was purchased from Perkin-Elmer Life Sciences, Inc. (Boston, Mass.). The MCF-7 (adenocarcinoma; mammary gland) cell line was obtained from the American Type Culture Collection (Manassas, Va.) or and was cultured in DMEM (Mediatech, Herndon, Va.) supplemented with 10% fetal bovine serum (FBS) (HyClone Logan, Utah) and bovine insulin (0.01 mg/mL) (Sigma, St. Louis, Mo.) at 37° C. in a humidified incubator at a 5% CO2/air mixture. CCXCKR2 transfected MDA-MB-435S were produced as described below. MDA-MB-435S human breast cancer line, was purchased from ATCC, and cultured in DMEM/10% FBS medium. The complete coding sequence of the gene encoding CCXCKR2 (a.k.a.CXCR7, hRDC1), was isolated from MCF-7 cells using μMACs mRNA isolation kit (Miltenyi Biotec, Auburn, Calif.). DNA contamination was removed by DNase digestion via RNeasy columns (Qiagen, Inc., Valencia, Calif.) and cDNA was generated using GeneAmp RNA PCR Core Kit (Applied Biosystems, Foster City, Calif.). PCR of cDNA samples was performed using Taq PCR Master Mix kit (Qiagen, Inc.) and hRDC1 primers harboring 5′ and 3′ Not I sites (hRDC1F 5′-[…]-3′ (SEQ ID NO:1), hRDC1R 5′-[…]-3′ (SEQ ID NO:2)) Not I digested PCR product was ligated into Not I digested pcDNA3.1(+)(Invitrogen, Carlsbad, Calif.) and screened for orientation and sequence confirmed. Plasmid DNA was then isolated from overnight bacterial cultures by Maxiprep (Qiagen, Inc.). Plasmid DNA (10 μg) was added to MDA-MB-435s cells and cells were electroporated (0.22 kV, 960 uF) via Gene Pulser (Biorad laboratories, Hercules, Calif.). 48 hr post-electroporation, cells were transferred to selection medium (1000 ug/ml G418).
# Binding Analysis. Target compounds were tested to determine their ability to bind with CCXCKR2 sites on MCF-7 and/or MDA-MB-435S cells. Efficiency-maximized radioligand binding using filtration protocols as described in Dairaghi D J, et al., HHV8-encoded vMIP-I selectively engages chemokine receptor CCR5. Agonist and antagonist profiles of viral chemokines., J. Biol. Chem. 1999 Jul. 30; 274(31): 21569-74 and Gosling J, et al., Cutting edge: identification of a novel chemokine receptor that binds dendritic cell-and T cell-active chemokines including ELC, SLC, and TECK., J. Immunol. 2000 Mar. 15; 164(6):2851-6 was used.
# In these assays, MCF-7 and/or MDA-MB-435S cells were interrogated with the target compounds and the ability of these compounds to displace ^125I radiolabeled SDF-1 was assessed using the protocol described in Dairaghi and Gosling. The target compounds were added to the plate to the indicated concentration and were then incubated with cells followed by the addition of radiolabeled chemokine (^125I SDF-1) for 3 hr at 4° C. in the following binding medium (25 mM HEPES, 140 mM NaCl, 1 mM CaCl2, 5 mM MgCl2 and 0.2% bovine serum albumin, adjusted to pH 7.1). All assays were then incubated for 3 hrs at 4° C. with gentle agitation. Following incubation in all binding assays, reactions were aspirated onto PEI-treated GF/B glass filters (Packard) using a cell harvester (Packard) and washed twice (25 mM HEPES, 500 mM NaCl, 1 mM CaCl2, 5 mM MgCl2, adjusted to pH 7.1). […]
# T1 sequence (P25106 whole entry): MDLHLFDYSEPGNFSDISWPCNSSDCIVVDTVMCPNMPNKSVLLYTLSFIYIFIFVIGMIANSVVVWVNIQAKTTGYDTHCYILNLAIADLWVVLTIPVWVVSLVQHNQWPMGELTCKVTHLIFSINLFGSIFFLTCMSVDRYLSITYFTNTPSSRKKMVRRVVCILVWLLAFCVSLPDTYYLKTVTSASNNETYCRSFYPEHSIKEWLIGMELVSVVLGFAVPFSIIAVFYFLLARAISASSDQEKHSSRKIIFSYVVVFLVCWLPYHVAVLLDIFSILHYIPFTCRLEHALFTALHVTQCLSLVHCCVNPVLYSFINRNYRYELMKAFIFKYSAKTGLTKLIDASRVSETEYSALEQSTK
row,SMILES,IC50
1,"COc1cc(C(=O)N(Cc2cc3ccccc3cn2)C[C@@H]2CCCN2C[C@@H]2C[C@H]3CC[C@@H](C2)N3)cc2c1OC(C)(C)O2 [Example 63, 7-Methoxy-2,2-dimethyl-benzo[1,3]dioxole-5-carboxylic acid {(S)-1-[(1S,3S,5R)-1-(8-aza-bicyclo[3.2.1]oct-3-yl)methyl]-pyrrolidin-2-ylmethyl}-isoquinolin-3-ylmethyl-amide]",< 500 nM

# Same assay, conditions: MCF-7 and/or MDA-MB-435S cells expressing CCXCKR2; 125I SDF-1; 3 hr at 4° C.; read-out: Activity (ability to displace 125I SDF-1 from CCXCKR2)
row,IC50,SMILES
1,< 500 nM,"COc1cc(C(=O)N(Cc2ccc3ccccc3n2)C[C@@H]2CCCN2C2CCC2)cc2c1OC(C)(C)O2 [Example 43, 7-Methoxy-2,2-dimethyl-benzo[1,3]dioxole-5-carboxylic acid ((S)-1-cyclobutyl-pyrrolidin-2-ylmethyl)-quinolin-2-ylmethyl-amide]"
2,< 10000 nM,COc1cc(C(=O)N(CCC2CCCN2C)Cc2cnc3ccccc3c2)cc(OC)c1OC (stereo not shown) [Example 10]
3,< 2000 nM,COc1ccc(C(=O)N(C[C@@H]2CCCN2CC2CCCCC2)c2cccc(-c3csc(C)n3)c2)cc1OC
4,< 2000 nM,COc1cc(C(=O)N(Cc2cnc3ccccc3c2)C[C@@H]2C[C@@H]3CCCC[C@@H]3N2)cc2c1OC(C)(C)O2
5,< 500 nM,"COc1cc(C(=O)N(CCC2CCCN2C)Cc2cc3ccccc3o2)cc(OC)c1OC (stereo not shown) [Example 7, N-Benzofuran-2-ylmethyl-3,4,5-trimethoxy-N-[2-(1-methyl-pyrrolidin-2-yl)-ethyl]-benzamide]"
6,< 500 nM,COc1cc(C(=O)N(CCCN2CCCCC2C)Cc2ccc3ccccc3c2)cc(OC)c1OC (stereo not shown) [Example 18]
7,< 500 nM,"COc1cc(C(=O)N(Cc2nc(-c3ccccc3)cs2)C[C@@H]2C[C@@H]3CCCC[C@@H]3N2)cc2c1OC(C)(C)O2 [Example 51, 7-Methoxy-2,2-dimethyl-benzo[1,3]dioxole-5-carboxylic acid (octahydro-indol-2-ylmethyl)-(4-phenyl-thiazol-2-ylmethyl)-amide]"
8,< 10000 nM,"COc1ccc(C(=O)N(C[C@@H]2CCCN2CC2CC2)c2cccc(-c3cccc(C#N)c3)c2)cc1OC [Example 34, N-(3′-Cyano-biphenyl-3-yl)-(S)—N-(1-cyclopropylmethyl-pyrrolidin-2-ylmethyl)-3,4-dimethoxy-benzamide]"
9,< 500 nM,"COc1cc(C(=O)N(Cc2ccc3ccccc3n2)C[C@@H]2C[C@@H]3CCCC[C@@H]3N2)cc2c1OC(C)(C)O2 [Example 70, 7-Methoxy-2,2-dimethyl-benzo[1,3]dioxole-5-carboxylic acid [(2S,3aS,7aS)-1-(octahydro-indol-2-yl)methyl]-quinolin-2-ylmethyl-amide]"
10,< 500 nM,"COc1ccc(C(=O)N(C[C@@H]2CCCN2C(C)C)c2cccc(-c3ccccc3)c2)cc1OC [Example 23, N-Biphenyl-3-yl-(S)—N-(1-isopropyl-pyrrolidin-2-ylmethyl)-3,4-dimethoxy-benzamide]"
11,< 2000 nM,"COc1cc(C(=O)N(CCC2CCCN2C)Cc2cc3ccccc3[nH]2)cc(OC)c1OC (stereo not shown) [Example 15, N-(1H-Indol-2ylmethyl)-3,4,5-trimethoxy-N-[2-(1-methyl-pyrrolidin-2-yl)-ethyl]-benzamide]"
12,< 500 nM,"COc1cc(C(=O)N(Cc2csc(-c3ccccc3)n2)C[C@@H]2CCCN2C)cc2c1OC(C)(C)O2 [Example 56, 7-Methoxy-2,2-dimethyl-benzo[1,3]dioxole-5-carboxylic acid ((S)-1-methyl-pyrrolidin-2-ylmethyl)-(2-phenyl-thiazol-4-ylmethyl)-amide]"
13,< 500 nM,"COc1cc(C(=O)N(Cc2ccc3cc(F)ccc3n2)C[C@@H]2C[C@@H]3CCCC[C@@H]3N2)cc2c1OC(C)(C)O2 [Example 72, 7-Methoxy-2,2-dimethyl-benzo[1,3]dioxole-5-carboxylic acid (6-fluoro-quinolin-2-ylmethyl)-[(2S,3aS,7aS)-1-(octahydro-indol-2-yl)methyl]-amide]"
14,< 500 nM,"COc1cc(C(=O)N(C[C@@H]2CCCN2CC2CCCCC2)c2cccc(-c3ccccc3)c2)ccc1OC(F)F [Example 33, N-biphenyl-3-yl-(S)—N-(1-cyclohexylmethyl-pyrrolidin-2-ylmethyl)-4-difluoromethoxy-3-methoxy-benzamide]"
15,< 500 nM,"COc1cc(C(=O)N(Cc2cc3ccccc3s2)C[C@@H]2CCCN2C2CCC2)cc2c1OC(C)(C)O2 [Example 60, 7-Methoxy-2,2-dimethyl-benzo[1,3]dioxole-5-carboxylic acid benzo[b]thiophen-2-ylmethyl-((S)-1-cyclobutyl-pyrrolidin-2-ylmethyl)-amide]"
16,< 2000 nM,"COc1ccc(C(=O)N(Cc2cc3ccccc3s2)C[C@@H]2CCCN2)cc1OC [Example 29, N-Benzo[b]thiophene-2-ylmethyl-3,4-dimethoxy-N—(S)-pyrrolidin-2-ylmethyl-benzamide]"
17,< 500 nM,"COc1cc(C(=O)N(Cc2cc3ccccc3o2)C[C@@H]2C[C@@H]3CCCC[C@@H]3N2)cc2c1OC(C)(C)O2 [Example 57, 7-Methoxy-2,2-dimethyl-benzo[1,3]dioxole-5-carboxylic acid benzofuran-2-ylmethyl-[(2S,3aS,7aS)-1-(octahydro-indol-2-yl)methyl]-amide]"
18,< 2000 nM,"COc1ccc(C(=O)N(Cc2cnc3ccccc3c2)C[C@@H]2CCCN2CC2CCCCC2)cc1OC [Example 2, N—(S)-(1-Cyclohexylmethyl-pyrrolidin-2-ylmethyl)-3,4-dimethoxy-N-quinolin-3-ylmethyl-benzamide]"
19,< 500 nM,"COc1cc(C(=O)N(Cc2nc(-c3ccccc3)cs2)C[C@@H]2CCCN2CC2CNC2)cc2c1OC(C)(C)O2 [Example 52, 7-Methoxy-2,2-dimethyl-benzo[1,3]dioxole-5-carboxylic acid ((S)-1-azetidin-3-ylmethyl-pyrrolidin-2-ylmethyl)-(4-phenyl-thiazol-2-ylmethyl)-amide]"
20,< 500 nM,"COc1cc(C(=O)N(Cc2nc(-c3ccccc3)c(C(F)(F)F)s2)C[C@@H]2C[C@@H]3CCCC[C@@H]3N2)cc2c1OC(C)(C)O2 [Example 77, 7-Methoxy-2,2-dimethyl-benzo[1,3]dioxole-5-carboxylic acid [(2S,3aS,7aS)-1-(octahydro-indol-2-yl)methyl]-(4-phenyl-5-trifluoromethyl-thiazol-2-ylmethyl)-amide]"
21,< 500 nM,"COc1cc(C(=O)N(CCC2CCCN2C)Cc2nc3ccccc3s2)cc(OC)c1OC (stereo not shown) [Example 13, N-Benzothiazol-2-ylmethyl-3,4,5-trimethoxy-N-[2-(1-methyl-pyrrolidin-2-yl)-ethyl]-benzamide]"
22,< 500 nM,COc1cc(C(=O)N(CCC2CCCN2C)Cc2cc3ccccc3n2C)cc(OC)c1OC (stereo not shown)
23,< 2000 nM,"COc1ccc(C(=O)N(C[C@@H]2CCCN2CC2CC2)c2cccc(-c3cccnc3)c2)cc1OC [Example 35, (S)—N-(1-Cyclopropylmethyl-pyrrolidin-2-ylmethyl)-3,4-dimethoxy-N-(3-pyridin-3-yl-phenyl)-benzamide]"
24,< 500 nM,"COc1cc(C(=O)N(CCC2CCCN2C)Cc2ccc3ccccc3c2)cc(OC)c1OC (stereo not shown) [Example 5, 3,4,5-Trimethoxy-N-[2-(1-methyl-pyrrolidin-2-yl)-ethyl]-N-naphthalen-2ylmethyl-benzamide]"
